For three molecules, Km and kcat results are on record in PMC12247511, “Evolutionary diversification of acyl-CoA synthetases underpins hydrophobic barrier formation across diverse tomato tissues and beyond” (Horticulture Research, 2025).

One data set has as its system T1, MeLACS.
T1 construct: full-length ORF, His-tagged (pET28b, BamHI/SalI), E. coli Rosetta 2 (DE3), Ni-NTA
Briefly: coupled myokinase/pyruvate kinase/lactate dehydrogenase assay, NADH at […] nm. As to conditions: 0.1 M Tris-HCl pH 7.5, 30 °C, 5 mM ATP, 0.5 mM CoA, 10 mM MgCl2, 2 mM DTT; fatty acid 0-1 mM from stock in 5% Triton X-100. The data set is classed as biochemical, Mesotaenium endlicherianum.

The target in the next data set is T2, SlLACS2 (Solanum lycopersicum, UniProt Z9EVN9B4R8).
T2 construct: full-length ORF, His-tagged (pET28b, BamHI/SalI), E. coli Rosetta 2 (DE3), Ni-NTA
T2 sequence (Z9EVN9B4R8 1-659): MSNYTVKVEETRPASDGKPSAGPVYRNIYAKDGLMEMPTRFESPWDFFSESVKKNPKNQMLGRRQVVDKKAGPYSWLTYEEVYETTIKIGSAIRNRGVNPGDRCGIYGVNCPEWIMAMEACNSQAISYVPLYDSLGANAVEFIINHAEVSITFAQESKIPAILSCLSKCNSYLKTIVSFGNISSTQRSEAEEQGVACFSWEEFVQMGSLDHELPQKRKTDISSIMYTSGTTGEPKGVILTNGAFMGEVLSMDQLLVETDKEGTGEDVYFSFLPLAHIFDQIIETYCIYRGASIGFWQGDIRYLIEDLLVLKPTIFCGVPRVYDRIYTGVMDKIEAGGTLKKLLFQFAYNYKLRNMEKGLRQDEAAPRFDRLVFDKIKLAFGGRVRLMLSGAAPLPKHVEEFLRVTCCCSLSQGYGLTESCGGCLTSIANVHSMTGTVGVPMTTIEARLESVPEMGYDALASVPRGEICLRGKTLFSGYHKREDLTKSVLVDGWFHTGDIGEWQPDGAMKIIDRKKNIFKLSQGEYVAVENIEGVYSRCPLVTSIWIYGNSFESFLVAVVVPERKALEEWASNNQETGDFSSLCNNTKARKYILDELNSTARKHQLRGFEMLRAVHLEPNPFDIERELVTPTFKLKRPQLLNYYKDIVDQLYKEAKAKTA
Described as above. The data set is classed as biochemical. The following applies: 0.1 M Tris-HCl pH 7.5, 30 °C, 5 mM ATP, 0.5 mM CoA, 10 mM MgCl2, 2 mM DTT; fatty acid 0-1 mM from stock in 5% Triton X-100.

In the next data set the test system is T3, MvLACS.
T3 construct: full-length ORF, His-tagged (pET28b, BamHI/SalI), E. coli Rosetta 2 (DE3), Ni-NTA
The data set is described as above. The data set is classed as biochemical, Mesostigma viride. The following applies: 0.1 M Tris-HCl pH 7.5, 30 °C, 5 mM ATP, 0.5 mM CoA, 10 mM MgCl2, 2 mM DTT; fatty acid 0-1 mM from stock in 5% Triton X-100.

Substrate in data set [1]: CCCCCCCCCCCCCCCC(=O)O
Briefly: purified protein. The following applies: 0.1 M Tris-HCl pH 7.5, 30 °C, 5 mM ATP, 0.5 mM CoA, 10 mM MgCl2, 2 mM DTT, fatty acid 0-1 mM from stock in 5% Triton X-100. The data set is classed as biochemical, Solanum lycopersicum.

Substrate in data set [2]: CCCCCCCCCCCCCCCCCC(=O)O
The experiment in a line: purified protein. The data set is classed as biochemical, Solanum lycopersicum. The following applies: 0.1 M Tris-HCl pH 7.5, 30 °C, 5 mM ATP, 0.5 mM CoA, 10 mM MgCl2, 2 mM DTT, fatty acid 0-1 mM from stock in 5% Triton X-100.

What is called Km is the substrate concentration at which the rate is half of its maximum. With `CCCCCCCCCCCCCCCCCC(=O)O` [sterate (C18:0)], the Km was approximately 166 µM in the data set with MeLACS, approximately 6 µM at SlLACS2 and approximately 40 µM in the data set on MvLACS.
As for `CCCCCCCCCCCCCCCC(=O)O` [palmitate (C16:0)], the Km in the data set with MeLACS was approximately 180 µM; on SlLACS2, approximately 7 µM; in the data set on MvLACS, approximately 32 µM.

B1: SlLACS1 (Solanum lycopersicum) (protein)
chain: MSMNKFGLKVEEGKEGKNGEPSIGPVYRNPIAKNGFPSADPDLSTAWQLFRSAVEKYPGNRMLGWRDFKDGKWGPYNWKTYKEAYEETLQTGSALRAHGIEPGARIGIYGANCPQWIVAMEACSAHSLICVPLYDTLGSGAVDFIIEHAEIDIVFVQDKKVKELLNAECTHAKRLKLIVCFTLLQQEEKDKAVSMNIKPYSWNEFLNMGKENPSEPSPPQPLDICTIMYTSGTSGEPKGVILTHENMTASVTGVDHFMEEFEDKMTVDDVYISFLPLAHILDRMIEEFFFHRGASVGYFHGNINEIQEDMMELKPTFLAGVPRVYEKVHEGVLKALEELNPFRRHMFHVLYNFKLKWMNLGYKQKYASRLADLLAFRKVKNRLGGRIRLIVSGGAPLSTEVEEFLRVTSCGFVLQGYGLTETCGLATIGHPDEMCMLGTVGPPFVFTEVRLEEVPEMGYDPLADPSRGEICVRGRTTFTGYYKNPELTREAIKDGWFHTGDIGEMMPNGVVKVIDRKKNVIKLSQGEYVALEYLEKVYAIAPIVEDIWVYGDSFKSMLIAVVAPHEGNTKKWADKNGHKGSITELCSLQDLNQYVLLELKSAAERNKLRGFENIKGVILEPQPFEFDKELVTATMKKRRERLLKRYKLEIDDLYKRLNAAAKR
notes: full-length ORF, His-tagged (pET28b, BamHI/SalI), E. coli Rosetta 2 (DE3), Ni-NTA
As a reminder, the kcat is the number of substrate molecules converted per active site and unit of time at saturation. As for B1, in the data set “purified protein [1]”, the Km is 42.4 ± 3.8 µM and the kcat is 0.102 ± 0.01 s⁻¹. Moreover, in “purified protein [2]”, the Km came out at 9.6 ± 1.4 µM and the kcat was 0.08 ± 0.0033 s⁻¹.
